Results taken from the NIST ThermoML archive (doi:10.1007/s10765-009-0579-1).

Experiment: xn = mol fraction of the nth substance listed
Settings: Gas; for viscosity: Oscillating disk viscometry; for mass density: Pycnometric method

CC(F)(F)Cl [1-chloro-1,1-difluoroethane] + FC(F)Cl
Settings | mass density [kg/m3] | viscosity [mPa·s]
298.15 K, 101.5 kPa, x2 = 0.5169 | 3.896 | 0.01164
298.15 K, 101.7 kPa, x2 = 0.7502 | 3.754 | 0.01219
298.15 K, 101.8 kPa, x2 = 0.2615 | 4.07 | 0.01109
298.15 K, 177.1 kPa, x2 = 0.5169 | 6.906 | 0.01163
298.15 K, 198 kPa, x2 = 0.7502 | 7.44 | 0.01217
298.15 K, 205.6 kPa, x2 = 0.2615 | 8.45 | 0.01104
298.15 K, 248.7 kPa, x2 = 0.5169 | 9.867 | 0.0116
298.15 K, 291.6 kPa, x2 = 0.7502 | 11.16 | 0.01212
298.15 K, 299.2 kPa, x2 = 0.2615 | 12.59 | 0.01102
298.15 K, 323.9 kPa, x2 = 0.5169 | 13.12 | 0.01159
298.15 K, 357.3 kPa, x2 = 0.2615 | 15.25 | 0.01103
298.15 K, 384.8 kPa, x2 = 0.7502 | 15.02 | 0.01212
298.15 K, 391.5 kPa, x2 = 0.5169 | 16.21 | 0.01158
298.15 K, 406.4 kPa, x2 = 0.2615 | 17.6 | 0.011
298.15 K, 453.1 kPa, x2 = 0.5169 | 19.06 | 0.01157
298.15 K, 477.3 kPa, x2 = 0.7502 | 18.96 | 0.0121
298.15 K, 571.3 kPa, x2 = 0.7502 | 23.23 | 0.01209
323.15 K, 101.8 kPa, x2 = 0.2615 | 3.732 | 0.01206
323.15 K, 102.2 kPa, x2 = 0.7502 | 3.468 | 0.0132
323.15 K, 102.4 kPa, x2 = 0.2615 | 3.755 | 0.01207
323.15 K, 103 kPa, x2 = 0.5169 | 3.663 | 0.01262
323.15 K, 190 kPa, x2 = 0.5169 | 6.762 | 0.01261
323.15 K, 199 kPa, x2 = 0.7502 | 6.842 | 0.0132
323.15 K, 200 kPa, x2 = 0.2615 | 7.459 | 0.01203
323.15 K, 276.2 kPa, x2 = 0.5169 | 10.03 | 0.01259
323.15 K, 297.3 kPa, x2 = 0.7502 | 10.36 | 0.01317
323.15 K, 299.4 kPa, x2 = 0.2615 | 11.38 | 0.01201
323.15 K, 373.4 kPa, x2 = 0.5169 | 13.8 | 0.01259
323.15 K, 396.6 kPa, x2 = 0.2615 | 15.36 | 0.012
323.15 K, 398.7 kPa, x2 = 0.7502 | 14.09 | 0.01318
323.15 K, 473.2 kPa, x2 = 0.5169 | 17.99 | 0.01258
323.15 K, 492.9 kPa, x2 = 0.2615 | 19.48 | 0.01199
323.15 K, 510 kPa, x2 = 0.7502 | 18.34 | 0.0132
323.15 K, 575.5 kPa, x2 = 0.5169 | 22.07 | 0.01257
323.15 K, 593.3 kPa, x2 = 0.2615 | 23.99 | 0.01199
323.15 K, 618.1 kPa, x2 = 0.7502 | 22.66 | 0.0132
323.15 K, 670.6 kPa, x2 = 0.5169 | 26.3 | 0.01258
323.15 K, 687 kPa, x2 = 0.2615 | 28.43 | 0.01202
323.15 K, 724.7 kPa, x2 = 0.7502 | 26.96 | 0.01318
323.15 K, 771 kPa, x2 = 0.5169 | 30.74 | 0.01259
323.15 K, 793.7 kPa, x2 = 0.2615 | 33.76 | 0.01211
323.15 K, 828.4 kPa, x2 = 0.7502 | 31.41 | 0.0132
323.15 K, 867.1 kPa, x2 = 0.5169 | 35.23 | 0.0126
323.15 K, 937.9 kPa, x2 = 0.7502 | 36.25 | 0.01322
348.15 K, 101.4 kPa, x2 = 0.5169 | 3.305 | 0.01354
348.15 K, 101.6 kPa, x2 = 0.7502 | 3.189 | 0.01427
348.15 K, 102.1 kPa, x2 = 0.2615 | 3.463 | 0.01295
348.15 K, 198.6 kPa, x2 = 0.5169 | 6.548 | 0.01355
348.15 K, 199 kPa, x2 = 0.2615 | 6.847 | 0.01294
348.15 K, 200.7 kPa, x2 = 0.7502 | 6.368 | 0.01423
348.15 K, 296.9 kPa, x2 = 0.2615 | 10.36 | 0.01293
348.15 K, 344.3 kPa, x2 = 0.7502 | 11.09 | 0.01422
348.15 K, 345.4 kPa, x2 = 0.5169 | 11.61 | 0.01355
348.15 K, 446.2 kPa, x2 = 0.2615 | 15.92 | 0.01294
348.15 K, 490.8 kPa, x2 = 0.5169 | 16.98 | 0.01355
348.15 K, 490.8 kPa, x2 = 0.7502 | 16.07 | 0.01424
348.15 K, 590.8 kPa, x2 = 0.2615 | 21.56 | 0.01297
348.15 K, 637.2 kPa, x2 = 0.5169 | 22.25 | 0.01354
348.15 K, 638.2 kPa, x2 = 0.7502 | 21.43 | 0.01423
348.15 K, 736.9 kPa, x2 = 0.2615 | 27.57 | 0.01297
348.15 K, 781.7 kPa, x2 = 0.5169 | 27.87 | 0.01358
348.15 K, 782.5 kPa, x2 = 0.7502 | 26.5 | 0.01425
348.15 K, 887.3 kPa, x2 = 0.2615 | 34.14 | 0.01301
348.15 K, 925.6 kPa, x2 = 0.7502 | 31.97 | 0.01428
348.15 K, 930.2 kPa, x2 = 0.5169 | 33.93 | 0.01365
348.15 K, 1036 kPa, x2 = 0.2615 | 40.96 | 0.01302
348.15 K, 1077 kPa, x2 = 0.5169 | 40.31 | 0.01365
348.15 K, 1090 kPa, x2 = 0.7502 | 38.36 | 0.0143
348.15 K, 1182 kPa, x2 = 0.2615 | 48.22 | 0.01307
348.15 K, 1240 kPa, x2 = 0.7502 | 44.53 | 0.01438
348.15 K, 1262 kPa, x2 = 0.5169 | 48.67 | 0.0137
348.15 K, 1334 kPa, x2 = 0.2615 | 56.48 | 0.01312
348.15 K, 1392 kPa, x2 = 0.7502 | 51.21 | 0.01443
348.15 K, 1408 kPa, x2 = 0.5169 | 56 | 0.01377
348.15 K, 1489 kPa, x2 = 0.2615 | 65.73 | 0.01325
348.15 K, 1541 kPa, x2 = 0.7502 | 58.1 | 0.0145
348.15 K, 1552 kPa, x2 = 0.5169 | 63.84 | 0.01386
348.15 K, 1683 kPa, x2 = 0.7502 | 64.7 | 0.01457
373.15 K, 101.5 kPa, x2 = 0.5169 | 3.079 | 0.01451
373.15 K, 102.1 kPa, x2 = 0.7502 | 2.984 | 0.01518
373.15 K, 102.2 kPa, x2 = 0.2615 | 3.224 | 0.01377
373.15 K, 245.8 kPa, x2 = 0.7502 | 7.266 | 0.01517
373.15 K, 294.3 kPa, x2 = 0.5169 | 9.101 | 0.01449
373.15 K, 298.2 kPa, x2 = 0.2615 | 9.612 | 0.0138
373.15 K, 390.1 kPa, x2 = 0.7502 | 11.68 | 0.0152
373.15 K, 490 kPa, x2 = 0.5169 | 15.46 | 0.01452
373.15 K, 493.6 kPa, x2 = 0.2615 | 16.27 | 0.01381
373.15 K, 583.4 kPa, x2 = 0.7502 | 17.74 | 0.01521
373.15 K, 686.2 kPa, x2 = 0.5169 | 22.09 | 0.01454
373.15 K, 695.2 kPa, x2 = 0.2615 | 23.4 | 0.01381
373.15 K, 782.8 kPa, x2 = 0.7502 | 24.22 | 0.01526
373.15 K, 876.7 kPa, x2 = 0.2615 | 30.25 | 0.01387
373.15 K, 879 kPa, x2 = 0.5169 | 28.79 | 0.01458
373.15 K, 889.8 kPa, x2 = 0.2615 | 30.77 | 0.01388
373.15 K, 978.5 kPa, x2 = 0.7502 | 30.82 | 0.0153
373.15 K, 1080 kPa, x2 = 0.5169 | 36.34 | 0.01464
373.15 K, 1085 kPa, x2 = 0.2615 | 38.57 | 0.01394
373.15 K, 1173 kPa, x2 = 0.7502 | 37.6 | 0.01535
373.15 K, 1277 kPa, x2 = 0.5169 | 43.98 | 0.01476
373.15 K, 1281 kPa, x2 = 0.2615 | 46.94 | 0.01403
373.15 K, 1361 kPa, x2 = 0.7502 | 44.52 | 0.01542
373.15 K, 1472 kPa, x2 = 0.5169 | 51.98 | 0.0148
373.15 K, 1483 kPa, x2 = 0.2615 | 56.2 | 0.01413
373.15 K, 1565 kPa, x2 = 0.7502 | 52.28 | 0.0155
373.15 K, 1666 kPa, x2 = 0.5169 | 60.38 | 0.01486
373.15 K, 1689 kPa, x2 = 0.2615 | 66.3 | 0.01426
373.15 K, 1760 kPa, x2 = 0.7502 | 60.2 | 0.01559
373.15 K, 1862 kPa, x2 = 0.5169 | 69.61 | 0.01502
373.15 K, 1897 kPa, x2 = 0.2615 | 77.72 | 0.01439
373.15 K, 1952 kPa, x2 = 0.7502 | 68.25 | 0.01568
373.15 K, 2065 kPa, x2 = 0.5169 | 80.02 | 0.01509
373.15 K, 2115 kPa, x2 = 0.2615 | 91.26 | 0.01461
373.15 K, 2190 kPa, x2 = 0.7502 | 79.1 | 0.01586
373.15 K, 2295 kPa, x2 = 0.5169 | 92.76 | 0.01537
373.15 K, 2299 kPa, x2 = 0.2615 | 104.3 | 0.01486
373.15 K, 2398 kPa, x2 = 0.7502 | 89.07 | 0.01602
373.15 K, 2448 kPa, x2 = 0.5169 | 102 | 0.01542
373.15 K, 2467 kPa, x2 = 0.2615 | 117.9 | 0.01516
